# Measurements from patent US12493040B2, “Cancer detection method using sense of smell of nematode” (HIROTSU BIO SCIENCE INC., priority 2013, dated 2025).
# Tested on: RNAi-treated eri-1 (mg366) nematodes
# Assay: RNAi screening of olfactory receptor genes: chemotaxis assay of RNAi-treated nematodes to odorants
# Assay type: in vivo, Caenorhabditis elegans
# Method: The RNAi assay was carried out by performing an RNAi method involving the feeding (feeding RNAi method) of eri-1 (mg366) (19), using an Ahringer library (37).
# Nine adult eri-1 mutants were placed on an NGM plate containing isopropyl 1-D-1-thiogalactopyranoside (0.19 g/L), ampicillin (60 mg/L), and Escherichia coli (E. coli), and were then cultured for 4 days. Subsequently, the adult worms were used in a chemotaxis assay. The chemotaxis assay was carried out as previously reported (6, 17). In the chemotaxis assay, the present inventor has used 30 to 50 worms in each experiment in which 1 μl of 10^−3- or 10^−4-diluted odorant (low concentration), or 1 and 5 μl of undiluted odorants (high concentration) were used.
# The z score and a control value in each single test from 2SD were calculated in all days (Table 3) or every day. The z score was used as a threshold indicating a great difference (−1.96 and 1.96, P<0.05). […] Accordingly, the present inventor has used the z score±1 (−0.96 and 0.96, P<0.33) as a weaker threshold.
# [1] = srh-10 RNAi-treated nematodes, low concentration of attractant
# [2] = srh-11 RNAi-treated nematodes, low concentration of attractant
# [3] = srh-15 RNAi-treated nematodes, low concentration of attractant
# [4] = srh-16 RNAi-treated nematodes, low concentration of attractant
# [5] = srh-18 RNAi-treated nematodes, low concentration of attractant
# [6] = srh-19 RNAi-treated nematodes, low concentration of attractant
# [7] = srh-22 RNAi-treated nematodes, low concentration of attractant
# [8] = srh-23 RNAi-treated nematodes, low concentration of attractant
# [9] = srh-24 RNAi-treated nematodes, low concentration of attractant
# [10] = srh-214 RNAi-treated nematodes, low concentration of attractant
# [11] = srh-216 RNAi-treated nematodes, low concentration of attractant
# [12] = srh-217 RNAi-treated nematodes, low concentration of attractant
# [13] = srh-220 RNAi-treated nematodes, low concentration of attractant
# [14] = srh-222 RNAi-treated nematodes, low concentration of attractant
# [15] = srh-223 RNAi-treated nematodes, low concentration of attractant
# [16] = srh-227 RNAi-treated nematodes, low concentration of attractant
# [17] = srh-229 RNAi-treated nematodes, low concentration of attractant
# [18] = srh-233 RNAi-treated nematodes, low concentration of attractant
# [19] = srh-235 RNAi-treated nematodes, low concentration of attractant
# [20] = srh-236 RNAi-treated nematodes, low concentration of attractant
# [21] = srh-239 RNAi-treated nematodes, low concentration of attractant
# [22] = srh-241 RNAi-treated nematodes, low concentration of attractant
# [23] = srh-243 RNAi-treated nematodes, low concentration of attractant
# [24] = srh-244 RNAi-treated nematodes, low concentration of attractant
# [25] = srh-247 RNAi-treated nematodes, low concentration of attractant
# [26] = srh-250 RNAi-treated nematodes, low concentration of attractant
# [27] = srh-251 RNAi-treated nematodes, low concentration of attractant
# [28] = srh-252 RNAi-treated nematodes, low concentration of attractant
# [29] = srh-258 RNAi-treated nematodes, low concentration of attractant
# [30] = srh-261 RNAi-treated nematodes, low concentration of attractant
# [31] = srh-264 RNAi-treated nematodes, low concentration of attractant
# [32] = srh-266 RNAi-treated nematodes, low concentration of attractant
# [33] = srh-274 RNAi-treated nematodes, low concentration of attractant
# [34] = srh-275 RNAi-treated nematodes, low concentration of attractant
# [35] = srh-276 RNAi-treated nematodes, low concentration of attractant
# [36] = srh-277 RNAi-treated nematodes, low concentration of attractant
# [37] = srh-279 RNAi-treated nematodes, low concentration of attractant
# [38] = srh-281 RNAi-treated nematodes, low concentration of attractant
# [39] = srh-282 RNAi-treated nematodes, low concentration of attractant
# [40] = srh-283 RNAi-treated nematodes, low concentration of attractant
# [41] = srh-284 RNAi-treated nematodes, low concentration of attractant
# [42] = srh-291 RNAi-treated nematodes, low concentration of attractant
# [43] = srh-292 RNAi-treated nematodes, low concentration of attractant
# [44] = srh-293 RNAi-treated nematodes, low concentration of attractant
# [45] = srh-297 RNAi-treated nematodes, low concentration of attractant
# [46] = srh-298 RNAi-treated nematodes, low concentration of attractant
# [47] = srh-308 RNAi-treated nematodes, low concentration of attractant
structure (smiles),measurement,setting,value
O=Cc1ccccc1 [High Bz],chemotaxis index,"Control nematodes, repellent or high concentration of attractant",−0.91 ± 0.007
same,chemotaxis index,"srh-4 RNAi-treated nematodes, repellent or high concentration of attractant",−0.75
same,chemotaxis index,"srh-7 RNAi-treated nematodes, repellent or high concentration of attractant",−1.00
same,chemotaxis index,"srh-8 RNAi-treated nematodes, repellent or high concentration of attractant",−0.93
same,chemotaxis index,"srh-10 RNAi-treated nematodes, repellent or high concentration of attractant",−0.95
same,chemotaxis index,"srh-11 RNAi-treated nematodes, repellent or high concentration of attractant",−0.78
same,chemotaxis index,"srh-15 RNAi-treated nematodes, repellent or high concentration of attractant",−0.41
same,chemotaxis index,"srh-16 RNAi-treated nematodes, repellent or high concentration of attractant",−0.88
same,chemotaxis index,"srh-18 RNAi-treated nematodes, repellent or high concentration of attractant",−0.88
same,chemotaxis index,"srh-19 RNAi-treated nematodes, repellent or high concentration of attractant",−1.00
same,chemotaxis index,"srh-22 RNAi-treated nematodes, repellent or high concentration of attractant",−0.80
same,chemotaxis index,"srh-23 RNAi-treated nematodes, repellent or high concentration of attractant",−0.88
same,chemotaxis index,"srh-24 RNAi-treated nematodes, repellent or high concentration of attractant",−1.00
same,chemotaxis index,"srh-25 RNAi-treated nematodes, repellent or high concentration of attractant",−0.73
same,chemotaxis index,"srh-27 RNAi-treated nematodes, repellent or high concentration of attractant",0.96
same,chemotaxis index,"srh-28 RNAi-treated nematodes, repellent or high concentration of attractant",−0.75
same,chemotaxis index,"srh-36 RNAi-treated nematodes, repellent or high concentration of attractant",−0.95
same,chemotaxis index,"srh-37 RNAi-treated nematodes, repellent or high concentration of attractant",−1.00
same,chemotaxis index,"srh-39 RNAi-treated nematodes, repellent or high concentration of attractant",−0.84
same,chemotaxis index,"srh-40 RNAi-treated nematodes, repellent or high concentration of attractant",−0.87
same,chemotaxis index,"srh-41 RNAi-treated nematodes, repellent or high concentration of attractant",−0.89
same,chemotaxis index,"srh-44 RNAi-treated nematodes, repellent or high concentration of attractant",−0.48
same,chemotaxis index,"srh-45 RNAi-treated nematodes, repellent or high concentration of attractant",−0.96
same,chemotaxis index,"srh-46 RNAi-treated nematodes, repellent or high concentration of attractant",−0.82
same,chemotaxis index,"srh-48 RNAi-treated nematodes, repellent or high concentration of attractant",−0.80
same,chemotaxis index,"srh-49 RNAi-treated nematodes, repellent or high concentration of attractant",−0.76
same,chemotaxis index,"srh-50 RNAi-treated nematodes, repellent or high concentration of attractant",−1.00
same,chemotaxis index,"srh-51 RNAi-treated nematodes, repellent or high concentration of attractant",−0.96
same,chemotaxis index,"srh-52 RNAi-treated nematodes, repellent or high concentration of attractant",−1.00
same,chemotaxis index,"srh-55 RNAi-treated nematodes, repellent or high concentration of attractant",−0.98
same,chemotaxis index,"srh-59 RNAi-treated nematodes, repellent or high concentration of attractant",−0.91
same,chemotaxis index,"srh-60 RNAi-treated nematodes, repellent or high concentration of attractant",−0.98
same,chemotaxis index,"srh-61 RNAi-treated nematodes, repellent or high concentration of attractant",−0.92
same,chemotaxis index,"srh-67 RNAi-treated nematodes, repellent or high concentration of attractant",−0.97
same,chemotaxis index,"srh-68 RNAi-treated nematodes, repellent or high concentration of attractant",−0.87
same,chemotaxis index,"srh-69 RNAi-treated nematodes, repellent or high concentration of attractant",−0.87
same,chemotaxis index,"srh-70 RNAi-treated nematodes, repellent or high concentration of attractant",−0.94
same,chemotaxis index,"srh-71 RNAi-treated nematodes, repellent or high concentration of attractant",−0.91
same,chemotaxis index,"srh-72 RNAi-treated nematodes, repellent or high concentration of attractant",−0.98
same,chemotaxis index,"srh-74 RNAi-treated nematodes, repellent or high concentration of attractant",−0.95
same,chemotaxis index,"srh-75 RNAi-treated nematodes, repellent or high concentration of attractant",−0.94
same,chemotaxis index,"srh-77 RNAi-treated nematodes, repellent or high concentration of attractant",−0.89
same,chemotaxis index,"srh-79 RNAi-treated nematodes, repellent or high concentration of attractant",−0.80
same,chemotaxis index,"srh-80 RNAi-treated nematodes, repellent or high concentration of attractant",−0.87
same,chemotaxis index,"srh-82 RNAi-treated nematodes, repellent or high concentration of attractant",−0.88
same,chemotaxis index,"srh-83 RNAi-treated nematodes, repellent or high concentration of attractant",−0.45
same,chemotaxis index,"srh-97 RNAi-treated nematodes, repellent or high concentration of attractant",−0.86
same,chemotaxis index,"srh-99 RNAi-treated nematodes, repellent or high concentration of attractant",−0.74
same,chemotaxis index,"srh-100 RNAi-treated nematodes, repellent or high concentration of attractant",−0.94
same,chemotaxis index,"srh-104 RNAi-treated nematodes, repellent or high concentration of attractant",−0.91
same,chemotaxis index,"srh-105 RNAi-treated nematodes, repellent or high concentration of attractant",−0.96
same,chemotaxis index,"srh-109 RNAi-treated nematodes, repellent or high concentration of attractant",−0.87
same,chemotaxis index,"srh-111 RNAi-treated nematodes, repellent or high concentration of attractant",−0.79
CC(C)CCO [isoamyl alcohol],chemotaxis index,[1],−0.12
same,chemotaxis index,[2],0.05
same,chemotaxis index,[3],0.59
same,chemotaxis index,[4],0.86
same,chemotaxis index,[5],0.67
same,chemotaxis index,[6],0.67
same,chemotaxis index,[7],0.58
same,chemotaxis index,[8],0.54
same,chemotaxis index,[9],0.58
same,chemotaxis index,[10],0.63
same,chemotaxis index,[11],0.76
same,chemotaxis index,[12],−0.12
same,chemotaxis index,[13],0.81
same,chemotaxis index,[14],0.80
same,chemotaxis index,[15],0.51
same,chemotaxis index,[16],0.43
same,chemotaxis index,[17],−0.20
same,chemotaxis index,[18],0.36
same,chemotaxis index,[19],0.64
same,chemotaxis index,[20],0.41
same,chemotaxis index,[21],0.57
same,chemotaxis index,[22],0.63
same,chemotaxis index,[23],0.46
same,chemotaxis index,[24],0.74
same,chemotaxis index,[25],0.60
same,chemotaxis index,[26],0.47
same,chemotaxis index,[27],0.75
same,chemotaxis index,[28],0.59
same,chemotaxis index,[29],0.78
same,chemotaxis index,[30],0.51
same,chemotaxis index,[31],0.61
same,chemotaxis index,[32],0.25
same,chemotaxis index,[33],0.44
same,chemotaxis index,[34],0.39
same,chemotaxis index,[35],0.58
same,chemotaxis index,[36],0.54
same,chemotaxis index,[37],0.53
same,chemotaxis index,[38],0.51
same,chemotaxis index,[39],0.52
same,chemotaxis index,[40],0.34
same,chemotaxis index,[41],0.73
same,chemotaxis index,[42],0.80
same,chemotaxis index,[43],0.43
same,chemotaxis index,[44],0.71
same,chemotaxis index,[45],0.42
same,chemotaxis index,[46],0.68
same,chemotaxis index,[47],0.56
O=Cc1ccccc1 [benzaldehyde],chemotaxis index,[1],0.12
same,chemotaxis index,[2],−0.11
same,chemotaxis index,[3],−0.13
same,chemotaxis index,[4],0.83
same,chemotaxis index,[5],0.05
same,chemotaxis index,[6],0.64
same,chemotaxis index,[7],0.28
same,chemotaxis index,[8],0.54
same,chemotaxis index,[9],0.69
same,chemotaxis index,[10],0.57
same,chemotaxis index,[11],0.47
same,chemotaxis index,[12],0.76
same,chemotaxis index,[13],0.61
same,chemotaxis index,[14],0.76
same,chemotaxis index,[15],0.49
same,chemotaxis index,[16],0.56
same,chemotaxis index,[17],−0.21
same,chemotaxis index,[18],−0.11
same,chemotaxis index,[19],0.32
same,chemotaxis index,[20],0.31
same,chemotaxis index,[21],0.34
same,chemotaxis index,[22],0.66
same,chemotaxis index,[23],0.30
same,chemotaxis index,[24],0.43
same,chemotaxis index,[25],0.40
same,chemotaxis index,[26],0.40
same,chemotaxis index,[27],0.70
same,chemotaxis index,[28],0.71
same,chemotaxis index,[29],0.40
same,chemotaxis index,[30],0.45
same,chemotaxis index,[31],0.38
same,chemotaxis index,[32],0.32
same,chemotaxis index,[33],0.45
same,chemotaxis index,[34],0.16
same,chemotaxis index,[35],0.56
same,chemotaxis index,[36],0.49
same,chemotaxis index,[37],0.34
same,chemotaxis index,[38],0.33
same,chemotaxis index,[39],0.24
same,chemotaxis index,[40],0.21
same,chemotaxis index,[41],0.29
same,chemotaxis index,[42],0.58
same,chemotaxis index,[43],0.48
same,chemotaxis index,[44],0.31
same,chemotaxis index,[45],0.63
same,chemotaxis index,[46],0.66
same,chemotaxis index,[47],0.14
